Data published in patent publication US10336761B2, “TGFβ receptor antagonist” (BRISTOL-MYERS SQUIBB COMPANY, priority 2015, dated 2019).

Biological target: HIS-TGFβR1 T204D (Homo sapiens (Human), UniProt P36897, T204D)
Test: HTRF probe-displacement assay, HIS-TGFβR1 T204D
Format: binding
Details: 1 hour at room temperature

Sequence of HIS-TGFβR1 T204D (P36897 34-503 T204D): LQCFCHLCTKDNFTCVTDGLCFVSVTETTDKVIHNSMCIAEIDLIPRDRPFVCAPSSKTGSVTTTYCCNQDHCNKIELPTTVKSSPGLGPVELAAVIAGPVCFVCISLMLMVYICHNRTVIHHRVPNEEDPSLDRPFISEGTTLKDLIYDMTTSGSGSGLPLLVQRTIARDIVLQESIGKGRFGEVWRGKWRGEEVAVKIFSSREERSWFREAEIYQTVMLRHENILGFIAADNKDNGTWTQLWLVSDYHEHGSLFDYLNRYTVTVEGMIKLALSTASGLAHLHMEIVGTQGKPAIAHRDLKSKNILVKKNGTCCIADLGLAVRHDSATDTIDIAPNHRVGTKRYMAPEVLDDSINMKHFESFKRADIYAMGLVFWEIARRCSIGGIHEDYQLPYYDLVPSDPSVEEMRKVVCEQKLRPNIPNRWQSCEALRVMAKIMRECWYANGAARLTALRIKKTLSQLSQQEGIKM

IC50	SMILES
2.7 µM	FC(F)(F)c1cccc(-c2nc(Nc3ccnc(Cl)c3)c3cccn3n2)n1 [Example 82, 2-chloro-N-{2-[6-(trifluoromethyl)pyridin-2-yl]pyrrolo[2,1-f][1,2,4]triazin-4-yl}pyridin-4-amine]
0.0043 µM	O=C(c1cnccc1Nc1nc(-c2cccc(C(F)F)n2)nn2cccc12)N1CCC1 [Example 189, 3-(azetidine-1-carbonyl)-N-{2-[6-(difluoromethyl)pyridin-2-yl]pyrrolo[2,1-f][1,2,4]triazin-4-yl}pyridin-4-amine]
0.001 µM	CN1CCN(CC(=O)Nc2cc(Nc3nc(-c4cccc(C(F)(F)F)n4)nn4cccc34)ccn2)CC1 [Example 316, 2-(4-methylpiperazin-1-yl)-N-[4-({2-[6-(trifluoromethyl)pyridin-2-yl]pyrrolo[2,1-f][1,2,4]triazin-4-yl}amino)pyridin-2-yl]acetamide]
0.016 µM	CC(=O)Nc1cc(Nc2nc(-c3ccc(F)cn3)nn3cccc23)c(F)cn1 [Example 323, N-(5-fluoro-4-{[2-(5-fluoropyridin-2-yl)pyrrolo[2,1-f][1,2,4]triazin-4-yl]amino}pyridin-2-yl)acetamide]
0.0094 µM	COc1cccc(-c2nc(Nc3ccncc3)c3c(C)ccn3n2)n1 [Example 16, N-[2-(6-methoxypyridin-2-yl)-5-methylpyrrolo[2,1-f][1,2,4]triazin-4-yl]pyridin-4-amine]
0.01 µM	COc1cccc(-c2nc(Nc3ccncc3C(F)F)c3cccn3n2)n1 [Example 15, 3-(difluoromethyl)-N-[2-(6-methoxypyridin-2-yl)pyrrolo[2,1-f][1,2,4]triazin-4-yl]pyridin-4-amine]
0.088 µM	Fc1c(Nc2nc(-c3cccc(C(F)F)n3)nn3cccc23)ccnc1Cl [Example 7, 2-chloro-N-{2-[6-(difluoromethyl)pyridin-2-yl]pyrrolo[2,1-f][1,2,4]triazin-4-yl}-3-fluoropyridin-4-amine]
0.12 µM	O=C(NCCN1CCCCC1)c1cnccc1Nc1nc(-c2cccc(C(F)(F)F)n2)nn2cccc12 [Example 171, N-[2-(piperidin-1-yl)ethyl]-4-({2-[6-(trifluoromethyl)pyridin-2-yl]pyrrolo[2,1-f][1,2,4]triazin-4-yl}amino)pyridine-3-carboxamide]
0.00079 µM	Fc1cccc(-c2nc(Nc3ccncc3F)c3cccn3n2)n1 [Example 14, 3-fluoro-N-[2-(6-fluoropyridin-2-yl)pyrrolo[2,1-f][1,2,4]triazin-4-yl]pyridin-4-amine]
0.0013 µM	O=C(CN1CCNCC1)Nc1cc(Nc2nc(-c3cccc(C(F)(F)F)n3)nn3cccc23)ccn1 [Example 322, 2-(piperazin-1-yl)-N-[4-({2-[6-(trifluoromethyl)pyridin-2-yl]pyrrolo[2,1-f][1,2,4]triazin-4-yl}amino)pyridin-2-yl]acetamide]
0.069 µM	Fc1cc(Nc2nc(-c3ccccn3)nn3cccc23)ccn1 [Example 55, 2-fluoro-N-[2-(pyridin-2-yl)pyrrolo[2,1-f][1,2,4]triazin-4-yl]pyridin-4-amine]
0.08 µM	CC(=O)Nc1nccc(Nc2nc(-c3cccc(C(F)(F)F)n3)nn3cccc23)c1F [Example 20, N-[3-fluoro-4-({2-[6-(trifluoromethyl)pyridin-2-yl]pyrrolo[2,1-f][1,2,4]triazin-4-yl}amino)pyridin-2-yl]acetamide]
0.061 µM	O=C(N[C@H]1CCC[C@@H]1O)c1cnccc1Nc1nc(-c2cccc(C(F)F)n2)nn2cccc12 [Example 199, 4-({2-[6-(difluoromethyl)pyridin-2-yl]pyrrolo[2,1-f][1,2,4]triazin-4-yl}amino)-N-[(1S,2S)-2-hydroxycyclopentyl]pyridine-3-carboxamide]
0.15 µM	Fc1cnccc1Nc1nc(-c2cc(Cl)ccn2)nn2cccc12 [Example 63, N-[2-(4-chloropyridin-2-yl)pyrrolo[2,1-f][1,2,4]triazin-4-yl]-3-fluoropyridin-4-amine]
0.0014 µM	Cc1nc(-c2nc(Nc3ccnc(NC(=O)C4CC4)c3)c3cccn3n2)ccc1F [Example 345, N-(4-{[2-(5-fluoro-6-methylpyridin-2-yl)pyrrolo[2,1-f][1,2,4]triazin-4-yl]amino}pyridin-2-yl)cyclopropanecarboxamide]
0.0061 µM	CC(=O)Nc1cc(Nc2nc(-c3ccc(F)c(C(F)F)n3)nn3cccc23)ccn1 [Example 11, N-[4-({2-[6-(difluoromethyl)-5-fluoropyridin-2-yl]pyrrolo[2,1-f][1,2,4]triazin-4-yl}amino)pyridin-2-yl]acetamide]
0.11 µM	Cc1cccc(-c2nc(Nc3ccncc3C(=O)N(C)CCN(C)C)c3cccn3n2)n1 [Example 162, N-[2-(dimethylamino)ethyl]-N-methyl-4-{[2-(6-methylpyridin-2-yl)pyrrolo[2,1-f][1,2,4]triazin-4-yl]amino}pyridine-3-carboxamide]
0.66 µM	Cc1cc(Nc2nc(-c3cccc(C(F)(F)F)n3)nn3cccc23)ccn1 [Example 257, 2-methyl-N-{2-[6-(trifluoromethyl)pyridin-2-yl]pyrrolo[2,1-f][1,2,4]triazin-4-yl}pyridin-4-amine]

Further lines, the molecule ahead of its results:

SMILES	IC50
Fc1cnccc1Nc1nc(-c2ccccn2)nn2ccc(CNCC3CNCCO3)c12 (stereo not shown) [Example 299, 3-fluoro-N-(5-{[(morpholin-2-ylmethyl)amino]methyl}-2-(pyridin-2-yl)pyrrolo[2,1-f][1,2,4]triazin-4-yl)pyridin-4-amine]	0.023 µM
Fc1cnccc1Nc1nc(-c2ccccn2)nn2ccc(CNCCC3CCCN3)c12 (stereo not shown) [Example 270, 3-fluoro-N-[2-(pyridin-2-yl)-5-({[2-(pyrrolidin-2-yl)ethyl]amino}methyl)pyrrolo[2,1-f][1,2,4]triazin-4-yl]pyridin-4-amine]	0.0036 µM
Cc1cccc(-c2nc(Nc3ccncc3F)c3c(CN4CCC(F)(F)CC4)ccn3n2)n1 [Example 76, N-{5-[(4,4-difluoropiperidin-1-yl)methyl]-2-(6-methylpyridin-2-yl)pyrrolo[2,1-f][1,2,4]triazin-4-yl}-3-fluoropyridin-4-amine]	0.00025 µM
CCNc1cc(Nc2nc(-c3ccccn3)nn3ccc(CNCC(C)(C)O)c23)ccn1 [Example 258, 1-{[(4-{[2-(ethylamino)pyridin-4-yl]amino}-2-(pyridin-2-yl)pyrrolo[2,1-f][1,2,4]triazin-5-yl)methyl]amino}-2-methylpropan-2-ol]	0.0045 µM
Cc1nc(-c2nc(Nc3ccncc3C(=O)NCCN3CCS(=O)(=O)CC3)c3cccn3n2)ccc1F [Example 35, N-[2-(1,1-dioxo-1,4-thiomorpholin-4-yl)ethyl]-4-{[2-(5-fluoro-6-methylpyridin-2-yl)pyrrolo[2,1-f][1,2,4]triazin-4-yl]amino}pyridine-3-carboxamide]	0.022 µM
CCc1nnc(CNC(=O)c2cnccc2Nc2nc(-c3cccc(C(F)F)n3)nn3cccc23)o1 [Example 182, 4-({2-[6-(difluoromethyl)pyridin-2-yl]pyrrolo[2,1-f][1,2,4]triazin-4-yl}amino)-N-[(5-ethyl-1,3,4-oxadiazol-2-yl)methyl]pyridine-3-carboxamide]	0.016 µM
COc1cccc(-c2nc(Nc3ccnc(NCCN4CCOCC4)c3)c3c(C)ccn3n2)n1 [Example 137, 4-N-[2-(6-methoxypyridin-2-yl)-5-methylpyrrolo[2,1-f][1,2,4]triazin-4-yl]-2-N-[2-(morpholin-4-yl)ethyl]pyridine-2,4-diamine]	0.12 µM
CN1CCN(Cc2ccn3nc(-c4ccccn4)nc(Nc4ccncc4F)c23)CC1 [Example 127, 3-fluoro-N-{5-[(4-methylpiperazin-1-yl)methyl]-2-(pyridin-2-yl)pyrrolo[2,1-f][1,2,4]triazin-4-yl}pyridin-4-amine]	0.0091 µM
O=c1[nH]c2ccccc2n1C1CCN(Cc2ccn3nc(-c4ccccn4)nc(Nc4ccncc4F)c23)CC1 [Example 278, 1-[1-({4-[(3-fluoropyridin-4-yl)amino]-2-(pyridin-2-yl)pyrrolo[2,1-f][1,2,4]triazin-5-yl}methyl)piperidin-4-yl]-2,3-dihydro-1H-1,3-benzodiazol-2-one]	0.0018 µM
C=Cc1cc2c(Nc3ccncc3F)nc(-c3cccc(OC)n3)nn2c1 [Example 210, N-[6-ethenyl-2-(6-methoxypyridin-2-yl)pyrrolo[2,1-f][1,2,4]triazin-4-yl]-3-fluoropyridin-4-amine]	0.03 µM
CN1CCN(Cc2ccn3nc(-c4ccc(F)cn4)nc(Nc4ccncc4F)c23)CC1 [Example 234, 3-fluoro-N-[2-(5-fluoropyridin-2-yl)-5-[(4-methylpiperazin-1-yl)methyl]pyrrolo[2,1-f][1,2,4]triazin-4-yl]pyridin-4-amine]	0.003 µM
Cc1cccc(-c2nc(Nc3ccncc3C(=O)NCCCN3CCN(C)CC3)c3cccn3n2)n1 [Example 160, N-[3-(4-methylpiperazin-1-yl)propyl]-4-{[2-(6-methylpyridin-2-yl)pyrrolo[2,1-f][1,2,4]triazin-4-yl]amino}pyridine-3-carboxamide]	0.0035 µM
O=C(NCCN1CCCC1)c1cnccc1Nc1nc(-c2ccccn2)nn2cccc12 [Example 142]	0.019 µM
O=C(NC1CCOCC1)c1cnccc1Nc1nc(-c2cccc(C(F)F)n2)nn2cccc12 [Example 178, 4-({2-[6-(difluoromethyl)pyridin-2-yl]pyrrolo[2,1-f][1,2,4]triazin-4-yl}amino)-N-(oxan-4-yl)pyridine-3-carboxamide]	0.22 µM
CN1CCN(Cc2ccn3nc(-c4cccc(C(F)F)n4)nc(Nc4ccncc4F)c23)CC1 [Example 115, N-{2-[6-(difluoromethyl)pyridin-2-yl]-5-[(4-methylpiperazin-1-yl)methyl]pyrrolo[2,1-f][1,2,4]triazin-4-yl}-3-fluoropyridin-4-amine]	0.0057 µM
CC(C)(C)OC(=O)N1CCN(CCNC(=O)c2cnccc2Nc2nc(-c3ccccn3)nn3cccc23)CC1 [Example 145, tert-butyl 4-{2-[(4-{[2-(pyridin-2-yl)pyrrolo[2,1-f][1,2,4]triazin-4-yl]amino}pyridin-3-yl)formamido]ethyl}piperazine-1-carboxylate]	0.21 µM
